Measured values taken from ChEMBL document CHEMBL1147331, “Cytotoxic and antimalarial bisbenzylisoquinoline alkaloids from Stephania erecta” (J Nat Prod, 1993).
Values after ≈ are worked out from the molar mass of the structure shown.

Columns and labels:
[1] = Selectivity index, ratio of ED50 for human KB-V1 cells to ED50 for chloroquine-resistant Plasmodium falciparum W2; format: toxicity, cell-based; details: read-out: Ratio ED50
[2] = Cytotoxicity against mouse P388 cells after 2 days by sulforhodamine B assay; format: cell-based; details: read-out: ED50
[3] = Selectivity index, ratio of ED50 for human HT1080 cells to ED50 for chloroquine-sensitive Plasmodium falciparum D6; format: toxicity, cell-based, HT-1080; details: read-out: Ratio ED50
[4] = Cytotoxicity against human KBV1 cells after 3 days by sulforhodamine B assay; format: cell-based, KB-V1; details: read-out: ED50
Plasmodium falciparum [5] = experiment: Antimalarial activity after 24 hrs against chloroquine-resistant Plasmodium falciparum W2 infected type A+ human erythrocytes by [3H]hypoxanthine uptake; format: functional; details: read-out: ED50 (the source's name)
[6] = Selectivity index, ratio of ED50 for human HT1080 cells to ED50 for chloroquine-resistant Plasmodium falciparum W2; format: toxicity, cell-based, HT-1080; details: read-out: Ratio ED50
[7] = Cytotoxicity against human A431 cells after 3 days by sulforhodamine B assay; format: cell-based, A-431; details: read-out: ED50
[8] = Cytotoxicity against human KB cells after 3 days by sulforhodamine B assay; format: cell-based; details: read-out: ED50
[9] = Selectivity index, ratio of ED50 for human MEL2 cells to ED50 for chloroquine-sensitive Plasmodium falciparum D6; format: toxicity, cell-based; details: read-out: Ratio ED50
[10] = Selectivity index, ratio of ED50 for human KB cells to ED50 for chloroquine-resistant Plasmodium falciparum W2; format: toxicity, cell-based; details: read-out: Ratio ED50
Plasmodium falciparum [11] = experiment: Antimalarial activity after 24 hrs against chloroquine-sensitive Plasmodium falciparum D6 infected type A+ human erythrocytes by [3H]hypoxanthine uptake; format: functional; details: read-out: ED50 (the source's name)
[12] = Selectivity index, ratio of ED50 for human LNCaP cells to ED50 for chloroquine-resistant Plasmodium falciparum W2; format: toxicity, cell-based; details: read-out: Ratio ED50
[13] = Cytotoxicity against human BCA1 cells after 3 days by sulforhodamine B assay; format: cell-based; details: read-out: ED50
[14] = Cytotoxicity against human LUC1 cells after 3 days by sulforhodamine B assay; format: cell-based; details: read-out: ED50
in vitro [15] = details: human, A431 cells
Description: Selectivity index, ratio of ED50 for human A431 cells to ED50 for chloroquine-resistant Plasmodium falciparum W2

[16] = Selectivity index, ratio of ED50 for human KB cells to ED50 for chloroquine-sensitive Plasmodium falciparum D6; format: toxicity, cell-based; details: read-out: Ratio ED50
[17] = Selectivity index, ratio of ED50 for human LNCaP cells to ED50 for chloroquine-sensitive Plasmodium falciparum D6; format: toxicity, cell-based; details: read-out: Ratio ED50
[18] = Selectivity index, ratio of ED50 for human ZR-75-1 cells to ED50 for chloroquine-resistant Plasmodium falciparum W2; format: toxicity, cell-based; details: read-out: Ratio ED50
[19] = Cytotoxicity against human Col1 cells after 3 days by sulforhodamine B assay; format: cell-based; details: read-out: ED50
in vitro [20] = details: mouse, P388 cells
Description: Selectivity index, ratio of ED50 for mice (Mus musculus) P388 cells to ED50 for chloroquine-sensitive Plasmodium falciparum D6

in vitro [21] = details: mouse, P388 cells; remark: listed apart in the source
Description: Selectivity index, ratio of ED50 for mice (Mus musculus) P388 cells to ED50 for chloroquine-resistant Plasmodium falciparum W2

[22] = Selectivity index, ratio of ED50 for human MEL2 cells to ED50 for chloroquine-resistant Plasmodium falciparum W2; format: toxicity, cell-based; details: read-out: Ratio ED50
[23] = Selectivity index, ratio of ED50 for human LUC1 cells to ED50 for chloroquine-sensitive Plasmodium falciparum D6; format: toxicity, cell-based; details: read-out: Ratio ED50
[24] = Selectivity index, ratio of ED50 for human KB-V1 cells to ED50 for chloroquine-sensitive Plasmodium falciparum D6; format: toxicity, cell-based; details: read-out: Ratio ED50
[25] = Cytotoxicity against human LNCAP cells after 3 days by sulforhodamine B assay; format: cell-based; details: read-out: ED50
[26] = Selectivity index, ratio of ED50 for human BCA1 cells to ED50 for chloroquine-sensitive Plasmodium falciparum D6; format: toxicity, cell-based; details: read-out: Ratio ED50
[27] = Selectivity index, ratio of ED50 for human COL1 cells to ED50 for chloroquine-sensitive Plasmodium falciparum D6; format: toxicity, cell-based; details: read-out: Ratio ED50
[28] = Selectivity index, ratio of ED50 for human LUC1 cells to ED50 for chloroquine-resistant Plasmodium falciparum W2; format: toxicity, cell-based; details: read-out: Ratio ED50
[29] = Cytotoxicity against human HT1080 cells after 3 days by sulforhodamine B assay; format: cell-based, HT-1080; details: read-out: ED50
[30] = Selectivity index, ratio of ED50 for human ZR-75-1 cells to ED50 for chloroquine-sensitive Plasmodium falciparum D6; format: toxicity, cell-based; details: read-out: Ratio ED50
[31] = Cytotoxicity against human SK-MEL-2 cells after 3 days by sulforhodamine B assay; format: cell-based; details: read-out: ED50
[32] = Selectivity index, ratio of ED50 for human COL1 cells to ED50 for chloroquine-resistant Plasmodium falciparum W2; format: toxicity, cell-based; details: read-out: Ratio ED50
[33] = Selectivity index, ratio of ED50 for human BCA1 cells to ED50 for chloroquine-resistant Plasmodium falciparum W2; format: toxicity, cell-based; details: read-out: Ratio ED50
[34] = Cytotoxicity against human ZR-75-1 cells after 3 days by sulforhodamine B assay; format: cell-based; details: read-out: ED50
in vitro [35] = details: human, A431 cells; remark: listed apart in the source
Description: Selectivity index, ratio of ED50 for human A431 cells to ED50 for chloroquine-sensitive Plasmodium falciparum D6

[36] = Ratio of ED50 for human KB cells to ED50 for human KBV1 cells; format: ADME, cell-based; details: KB cells and KBV1 cells, read-out: Ratio ED50

SMILES | selectivity ratio [1] | CC50 at 48 h [2] [µg/mL] | selectivity ratio [3] | CC50 at 72 h [4] [µg/mL] | EC50 (Plasmodium falciparum [5]) [µg/mL] | selectivity ratio [6] | CC50 at 72 h [7] [µg/mL] | CC50 at 72 h [8] [µg/mL] | selectivity ratio [9] | selectivity ratio [10] | EC50 (Plasmodium falciparum [11]) [µg/mL] | selectivity ratio [12] | CC50 at 72 h [13] [µg/mL] | CC50 at 72 h [14] [µg/mL] | selectivity ratio (in vitro [15]) | selectivity ratio [16] | selectivity ratio [17] | selectivity ratio [18] | CC50 at 72 h [19] [µg/mL] | selectivity ratio (in vitro [20]) | also measured
COc1ccc2cc1Oc1ccc(cc1)C[C@H]1c3c(cc(OC)c(OC)c3Oc3cc4c(cc3OC)CCN[C@@H]4C2)CCN1C | 21 | 3.5 (≈ 5.75 µM) | 161 | 2 (≈ 3.29 µM) | 0.0937 (≈ 0.154 µM) | 79 | 6.1 (≈ 10 µM) | 6 (≈ 9.86 µM) | 316 | 64 | 0.0459 (≈ 0.0754 µM) | 40 | 3.2 (≈ 5.26 µM) | 8.8 (≈ 14.5 µM) | 65 | 131 | 81 | 20 | 5.5 (≈ 9.04 µM) | 76 | selectivity ratio (in vitro [21]): 37; selectivity ratio [22]: 155; selectivity ratio [23]: 192; selectivity ratio [24]: 44; CC50 at 72 h [25]: 3.7 µg/mL (≈ 6.08 µM); selectivity ratio [26]: 70; selectivity ratio [27]: 120; selectivity ratio [28]: 94; CC50 at 72 h [29]: 7.4 µg/mL (≈ 12.2 µM); selectivity ratio [30]: 41; CC50 at 72 h [31]: 14.5 µg/mL (≈ 23.8 µM); selectivity ratio [32]: 59; selectivity ratio [33]: 34; CC50 at 72 h [34]: 1.9 µg/mL (≈ 3.12 µM); selectivity ratio (in vitro [35]): 133
COc1ccc2cc1Oc1ccc(cc1)C[C@H]1c3c(cc(OC)c4c3Oc3cc5c(cc3O4)CCN(C)[C@@H]5C2)CCN1C | 2 | 5.6 (≈ 9.71 µM) | 23 | 0.4 (≈ 0.694 µM) | 0.256 (≈ 0.443 µM) | 9 | 2.6 (≈ 4.51 µM) | 4.8 (≈ 8.32 µM) | 89 | 19 | 0.0974 (≈ 0.169 µM) | 8 | 2.3 (≈ 3.99 µM) | 7.7 (≈ 13.4 µM) | 10 | 49 | 22 | 5 | 3.6 (≈ 6.24 µM) | 57 | selectivity ratio (in vitro [21]): 22; selectivity ratio [22]: 34; selectivity ratio [23]: 79; selectivity ratio [24]: 4; CC50 at 72 h [25]: 2.1 µg/mL (≈ 3.64 µM); selectivity ratio [26]: 24; selectivity ratio [27]: 37; selectivity ratio [28]: 30; CC50 at 72 h [29]: 2.2 µg/mL (≈ 3.81 µM); selectivity ratio [30]: 12; CC50 at 72 h [31]: 8.7 µg/mL (≈ 15.1 µM); selectivity ratio [32]: 14; selectivity ratio [33]: 9; CC50 at 72 h [34]: 1.2 µg/mL (≈ 2.08 µM); selectivity ratio [36]: 10; selectivity ratio (in vitro [35]): 27
